Measurements: US20230011869A1 (Hoffmann-La Roche Inc., priority 2018, published 2023)
Structures can show the parent of a compound that is named as a salt.

Test system: Acinetobacter baumannii ATCC17978
Test: Antimicrobial susceptibility testing: 90% growth inhibitory concentration (IC90) determination, Iso-Sensitest broth
Assay type: cell-based
Conditions: 90% growth inhibitory concentration, Acinetobacter baumannii ATCC17978, Iso-Sensitest broth, OD 600 nm over 16 h; read-out: ATCC17978 IC90
Outline: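 A. baumannii ATCC17978 grown in Iso-Sensitest broth across 10 compound concentrations at 35±2 °C.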

| SMILES | IC90 [nM] |
| --- | --- |
| Cc1cc(Nc2nccn3c(-c4ccc(OCC#N)c(F)c4Cl)cnc23)ccc1C(=O)N1CCN(C(=O)NC[C@H](C)N)CC1 [Example 165, N-[(2S)-2-aminopropyl]-4-[4-[[3-[2-chloro-4-(cyanomethoxy)-3-fluoro-phenyl]imidazo[1,2-a]pyrazin-8-yl]amino]-2-methyl-benzoyl]piperazine-1-carboxamide formate] | 71 |
| COc1ccc(-c2cnc3c(Nc4ccc(C(=O)N5CCN(C(=O)N[C@H](C)CN)CC5)c(C)c4)nccn23)c(Cl)c1F [Example 166, formate] | 200 |
| COc1ccc(-c2cnc3c(Nc4ccc(C(=O)N5CCN(C(=O)N6CCO[C@H](CN)C6)CC5)c(C)c4)nccn23)c(Cl)c1F [Example 167, [4-[(2R)-2-(aminomethyl)morpholine-4-carbonyl]piperazin-1-yl]-[4-[[3-(2-chloro-3-fluoro-4-methoxy-phenyl)imidazo[1,2-a]pyrazin-8-yl]amino]-2-methyl-phenyl]methanone formate] | 220 |
| Cc1cc(Nc2nccn3c(-c4ccc(OC(F)F)cc4)cnc23)ccc1C(=O)N1CCN(C(=O)NCCN2CCC2)CC1 [Example 168, N-[2-(azetidin-1-yl)ethyl]-4-[4-[[3-[4-(difluoromethoxy)phenyl]imidazo[1,2-a]pyrazin-8-yl]amino]-2-methyl-benzoyl]piperazine-1-carboxamide formate] | 470 |
| Cc1cc(Nc2nccn3c(-c4ccc(OC(F)F)cc4)cnc23)ccc1C(=O)N1CCN(C(=O)NC2CNC2)CC1 [Example 169, N-(azetidin-3-yl)-4-[4-[[3-[4-(difluoromethoxy)phenyl]imidazo[1,2-a]pyrazin-8-yl]amino]-2-methyl-benzoyl]piperazine-1-carboxamide trifluoroacetate] | 470 |
| Cc1cc(Nc2nccn3c(-c4ccc(OC(F)F)cc4)cnc23)ccc1C(=O)N1CCN(C(=O)[C@@H]2C[C@@H](O)CN2)CC1 [Example 180, [4-[[3-[4-(difluoromethoxy)phenyl]imidazo[1,2-a]pyrazin-8-yl]amino]-2-methyl-phenyl]-[4-[(2S,4R)-4-hydroxypyrrolidine-2-carbonyl]piperazin-1-yl]methanone hydrochloride] | 270 |
| Cc1cc(Nc2nccn3c(-c4ccc(OC(F)F)cc4)cnc23)ccc1C(=O)N1CCC(C(=O)N2CCNCC2CO)CC1 (stereo not shown) [Example 181, [4-[[3-[4-(difluoromethoxy)phenyl]imidazo[1,2-a]pyrazin-8-yl]amino]-2-methyl-phenyl]-[4-[2-(hydroxymethyl)piperazine-1-carbonyl]-1-piperidyl]methanone hydrochloride] | 130 |
| Cc1cc(Nc2nccn3c(-c4ccc(OC(F)F)cc4)cnc23)ccc1C(=O)N1CCN(C(=O)[C@@H]2C[C@H](O)CN2)CC1 [Example 182, [4-[[3-[4-(difluoromethoxy)phenyl]imidazo[1,2-a]pyrazin-8-yl]amino]-2-methyl-phenyl]-[4-[(2S,4S)-4-hydroxypyrrolidine-2-carbonyl]piperazin-1-yl]methanone hydrochloride hydrochloride] | 180 |
| Cc1cc(Nc2nccn3c(-c4ccc(OC(F)F)cc4)cnc23)ccc1C(=O)N1CCC(C(=O)N2CCNC(CO)C2)CC1 (stereo not shown) [Example 183, [4-[[3-[4-(difluoromethoxy)phenyl]imidazo[1,2-a]pyrazin-8-yl]amino]-2-methyl-phenyl]-[4-[3-(hydroxymethyl)piperazine-1-carbonyl]-1-piperidyl]methanone hydrochloride] | 270 |
| CCc1cc(Nc2nccn3c(-c4ccc(OC)c(F)c4F)cnc23)ccc1C(=O)N1CCN(C(=O)[C@@H]2C[C@@H](O)CN2)CC1 [Example 185, [4-[[3-(2,3-difluoro-4-methoxy-phenyl)imidazo[1,2-a]pyrazin-8-yl]amino]-2-ethyl-phenyl]-[4-[(2S,4R)-4-hydroxypyrrolidine-2-carbonyl]piperazin-1-yl]methanone hydrochloride] | 220 |
| COc1ccc(-c2cnc3c(Nc4ccc(C(=O)N5CCN(C(=O)[C@H]6CCNC[C@@H]6O)CC5)c(C)c4)nccn23)c(F)c1F [Example 192, [4-[[3-(2,3-difluoro-4-methoxy-phenyl)imidazo[1,2-a]pyrazin-8-yl]amino]-2-methyl-phenyl]-[4-[(3R,4S)-3-hydroxypiperidine-4-carbonyl]piperazin-1-yl]methanone hydrochloride] | 290 |

Continued, values first:

| IC90 [nM] | SMILES |
| --- | --- |
| 300 | COc1ccc(-c2cnc3c(Nc4ccc(C(=O)N5CCN(C(=O)C6CCCN6)CC5)c(C)c4)nccn23)cc1F (stereo not shown) [Example 174, [4-[[3-(3-fluoro-4-methoxy-phenyl)imidazo[1,2-a]pyrazin-8-yl]amino]-2-methyl-phenyl]-[4-(pyrrolidine-2-carbonyl)piperazin-1-yl]methanone] |
| 250 | COc1ccc(-c2cnc3c(Nc4ccc(C(=O)N5CCN(C(=O)[C@@H]6CCN6)CC5)c(C)c4)nccn23)cc1F [Example 175, [4-[(2S)-azetidine-2-carbonyl]piperazin-1-yl]-[4-[[3-(3-fluoro-4-methoxy-phenyl)imidazo[1,2-a]pyrazin-8-yl]amino]-2-methyl-phenyl]methanone] |
| 130 | Cc1cc(Nc2nccn3c(-c4ccc(OC(F)F)cc4)cnc23)ccc1C(=O)N1CCN(C(=O)[C@@H]2CCN2)CC1 [Example 176, [4-[(2S)-azetidine-2-carbonyl]piperazin-1-yl]-[4-[[3-[4-(difluoromethoxy)phenyl]imidazo[1,2-a]pyrazin-8-yl]amino]-2-methyl-phenyl]methanone hydrochloride] |
| 210 | Cc1cc(Nc2nccn3c(-c4ccc(OC(F)F)cc4)cnc23)ccc1C(=O)N1CCN(C(=O)C2CCCN2)CC1 (stereo not shown) [Example 177, [4-[[3-[4-(difluoromethoxy)phenyl]imidazo[1,2-a]pyrazin-8-yl]amino]-2-methyl-phenyl]-[4-(pyrrolidine-2-carbonyl)piperazin-1-yl]methanone hydrochloride] |
| 89 | COc1ccc(-c2cnc3c(Nc4ccc(C(=O)N5CCN(C(=O)[C@@H]6CCCN6)CC5)c(C)c4)nccn23)cc1F [Example 178, [4-[[3-(3-fluoro-4-methoxy-phenyl)imidazo[1,2-a]pyrazin-8-yl]amino]-2-methyl-phenyl]-[4-[(2S)-pyrrolidine-2-carbonyl]piperazin-1-yl]methanone hydrochloride] |
| 190 | COc1ccc(-c2cnc3c(Nc4ccc(C(=O)N5CCN(C(=O)[C@H]6CCCN6)CC5)c(C)c4)nccn23)cc1F [Example 179, [4-[[3-(3-fluoro-4-methoxy-phenyl)imidazo[1,2-a]pyrazin-8-yl]amino]-2-methyl-phenyl]-[4-[(2R)-pyrrolidine-2-carbonyl]piperazin-1-yl]methanone hydrochloride] |
| 250 | COc1ccc(-c2cnc3c(Nc4ccc(C(=O)N5CCN(C(=O)[C@H]6CCNC6)CC5)c(C)c4)nccn23)cc1F [Example 186, [4-[[3-(3-fluoro-4-methoxy-phenyl)imidazo[1,2-a]pyrazin-8-yl]amino]-2-methyl-phenyl]-[4-[(3S)-pyrrolidine-3-carbonyl]piperazin-1-yl]methanone hydrochloride] |
| 230 | COc1ccc(-c2cnc3c(Nc4ccc(C(=O)N5CCN(C(=O)C6CNC6)CC5)c(C)c4)nccn23)cc1F [Example 187, [4-(azetidine-3-carbonyl)piperazin-1-yl]-[4-[[3-(3-fluoro-4-methoxy-phenyl)imidazo[1,2-a]pyrazin-8-yl]amino]-2-methyl-phenyl]methanone hydrochloride] |
